Experimental data taken from patent US11370763B2, “Compounds and compositions for treating conditions associated with NLRP activity” (Novartis AG, priority 2017, dated 2022).

The compounds below were run on IL-1β production in PMA-differentiated THP-1 cells (assay: IL-1β production in PMA-differentiated THP-1 cells stimulated with gramicidin (hTHP-1 assay containing 2% fetal bovine serum; Procedures 1-3)). Conditions: Homo sapiens, THP-1, hTHP-1 assay containing 2% fetal bovine serum; class symbols; read-out: hTHP-1 IC50 (Average IC50 of compounds in hTHP-1 assay).
Assay type: cell-based, human
How it was run: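 THP-1 cells differentiated with PMA (20 ng/ml, 16-18 h), replated in 2% FBS RPMI (50,000 cells/well), preincubated 1 h with compound (top final 100 μM, 3-fold steps, 0.37% DMSO), then stimulated 2 h with gramicidin (5 μM). Supernatant IL-1β measured by HTRF.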
An IC50 of 5000 to 30000 nM was found for CC(C)c1cc(-n2cccn2)cc(C(C)C)c1CC(=O)N=S(N)(=O)c1cnc(C(C)(C)O)s1 (stereo not drawn) [Example 107, N-(amino(2-(2-hydroxypropan-2-yl)thiazol-5-yl)(oxo)-λ^6-sulfaneylidene)-2-(2,6-diisopropyl-4-(1H-pyrazol-1-yl)phenyl)acetamide] in this work.
An IC50 of 40 to 200 nM was found for COCc1cc(C(C)C)c(CC(=O)N=S(N)(=O)c2cnc(C(C)(C)O)s2)c(C(C)C)c1 (stereo not drawn) [Example 108, N-(amino(2-(2-hydroxypropan-2-yl)thiazol-5-yl)(oxo)-λ^6-sulfaneylidene)-2-(2,6-diisopropyl-4-(methoxymethyl)phenyl) acetamide] in this work.
An IC50 of 40 to 200 nM was found for COCc1cc(C(C)C)c(CC(=O)N=S(N)(=O)c2cnc(C(C)(C)O)s2)c(C(C)C)c1F (stereo not drawn) [Example 109, N-(amino(2-(2-hydroxypropan-2-yl)thiazol-5-yl)(oxo)-λ^6-sulfaneylidene)-2-(3-fluoro-2,6-diisopropyl-4-(methoxymethyl)phenyl) acetamide] in this work.
An IC50 of 200 to 1000 nM was found for CC(C)c1cc(-c2ccc3ccccc3c2)cc(C(C)C)c1CC(=O)N=S(N)(=O)c1ncc(C(C)(C)O)s1 (stereo not drawn) [Example 110, N-(amino(5-(2-hydroxypropan-2-yl)thiazol-2-yl)(oxo)-λ^6-sulfaneylidene)-2-(2,6-diisopropyl-4-(naphthalen-2-yl)phenyl)acetamide] in this work.
An IC50 of 40 to 200 nM was found for COCc1cc(C(C)C)c(CC(=O)N=S(N)(=O)c2ncc(C(C)(C)O)s2)c(C(C)C)c1 (stereo not drawn) [Example 111, N-(amino(5-(2-hydroxypropan-2-yl)thiazol-2-yl)(oxo)-λ^6-sulfaneylidene)-2-(2,6-diisopropyl-4-(methoxymethyl)phenyl) acetamide] in this work.
An IC50 of 200 to 1000 nM was found for CC(C)c1cc(-c2ccc(Cl)c(Cl)c2)cc(C(C)C)c1CC(=O)N=S(N)(=O)c1cnc(C(C)(C)O)s1 (stereo not drawn) [Example 112, N-(amino(2-(2-hydroxypropan-2-yl)thiazol-5-yl)(oxo)-λ^6-sulfaneylidene)-2-(3′,4′-dichloro-3,5-diisopropyl-[1,1′-biphenyl]-4-yl)acetamide] in this work.
An IC50 of 8 to 40 nM was found for CC(C)c1cc(-c2ccc3ccccc3c2)cc(C(C)C)c1CC(=O)N=S(N)(=O)c1cnc(C(C)(C)O)s1 (stereo not drawn) [Example 113, N-(amino(2-(2-hydroxypropan-2-yl)thiazol-5-yl)(oxo)-λ^6-sulfaneylidene)-2-(2,6-diisopropyl-4-(naphthalen-2-yl)phenyl)acetamide] in this work.
An IC50 of 1000 to 5000 nM was found for CC(C)c1ccc(C#N)c(C(C)C)c1CC(=O)N=S(N)(=O)c1cnc(C(C)(C)O)s1 (stereo not drawn) [Example 114, N-(amino(2-(2-hydroxypropan-2-yl)thiazol-5-yl)(oxo)-λ^6-sulfaneylidene)-2-(3-cyano-2,6-diisopropylphenyl)acetamide] in this work.
An IC50 of 200 to 1000 nM was found for CC(C)c1c(F)c(C#N)cc(C2CC2)c1CC(=O)N=S(N)(=O)c1sc(C(C)(C)O)nc1CO (stereo not drawn) [Example 115, N-(amino(4-(hydroxymethyl)-2-(2-hydroxypropan-2-yl)thiazol-5-yl)(oxo)-λ^6-sulfaneylidene)-2-(4-cyano-6-cyclopropyl-3-fluoro-2-isopropylphenyl)acetamide] in this work.
An IC50 of 5000 to 30000 nM was found for COc1ccc2cc(-c3cc(C(C)C)c(CC(=O)N=S(N)(=O)c4cnc(C(C)(C)O)s4)c(C(C)C)c3)ccc2c1 (stereo not drawn) [Example 116, N-(amino(2-(2-hydroxypropan-2-yl)thiazol-5-yl)(oxo)-λ^6-sulfaneylidene)-2-(2,6-diisopropyl-4-(6-methoxynaphthalen-2-yl)phenyl)acetamide] in this work.
An IC50 of 40 to 200 nM was found for CC(C)c1cc(-c2ccc3c(c2)OC(F)(F)O3)cc(C(C)C)c1CC(=O)N=S(N)(=O)c1ncc(C(C)(C)O)s1 (stereo not drawn) [Example 117, N-(amino(5-(2-hydroxypropan-2-yl)thiazol-2-yl)(oxo)-λ^6-sulfaneylidene)-2-(4-(2,2-difluorobenzo[d][1,3]dioxol-5-yl)-2,6-diisopropylphenyl)acetamide] in this work.
An IC50 of 200 to 1000 nM was found for CC(C)c1cc(-c2ccc3c(c2)OC(F)(F)O3)cc(C(C)C)c1CC(=O)N=S(N)(=O)c1cnc(C(C)(C)O)s1 (stereo not drawn) [Example 118, N-(amino(2-(2-hydroxypropan-2-yl)thiazol-5-yl)(oxo)-λ^6-sulfaneylidene)-2-(4-(2,2-difluorobenzo[d][1,3]dioxol-5-yl)-2,6-diisopropylphenyl)acetamide] in this work.
An IC50 of 200 to 1000 nM was found for CC(C)c1ccc(F)c(C(C)C)c1CC(=O)N=S(N)(=O)c1nc(C(C)(C)O)cs1 (stereo not drawn) [Example 119, N-(amino(4-(2-hydroxypropan-2-yl)thiazol-2-yl)(oxo)-λ^6-sulfaneylidene)-2-(3-fluoro-2,6-diisopropylphenyl)acetamide] in this work.
An IC50 of 200 to 1000 nM was found for CC(C)c1ccc(C#N)c(C(C)C)c1CC(=O)N=S(N)(=O)c1nc(C(C)(C)O)cs1 (stereo not drawn) [Example 120, N-(amino(4-(2-hydroxypropan-2-yl)thiazol-2-yl)(oxo)-λ^6-sulfaneylidene)-2-(3-cyano-2,6-diisopropylphenyl)acetamide] in this work.
An IC50 of 200 to 1000 nM was found for Cc1ccc(-c2cc(C(C)C)c(CC(=O)N=S(N)(=O)c3ncc(C(C)(C)O)s3)c(C(C)C)c2)cc1C (stereo not drawn) [Example 121, N-(amino(5-(2-hydroxypropan-2-yl)thiazol-2-yl)(oxo)-λ^6-sulfaneylidene)-2-(3,5-diisopropyl-3′,4′-dimethyl-[1,1′-biphenyl]-4-yl)acetamide] in this work.
An IC50 of 200 to 1000 nM was found for CC(C)c1cc(-c2ccc(Cl)c(Cl)c2)cc(C(C)C)c1CC(=O)N=S(N)(=O)c1ncc(C(C)(C)O)s1 (stereo not drawn) [Example 122, N-(amino(5-(2-hydroxypropan-2-yl)thiazol-2-yl)(oxo)-λ^6-sulfaneylidene)-2-(3′,4′-dichloro-3,5-diisopropyl-[1,1′-biphenyl]-4-yl)acetamide] in this work.
An IC50 of 200 to 1000 nM was found for CC(C)c1cc(C#N)c(F)c(C(C)C)c1CC(=O)N=S(N)(=O)c1cnc(C(C)(C)O)s1 (stereo not drawn) [Example 123, N-(amino(2-(2-hydroxypropan-2-yl)thiazol-5-yl)(oxo)-λ^6-sulfaneylidene)-2-(4-cyano-3-fluoro-2,6-diisopropylphenyl)acetamide] in this work.
An IC50 of 200 to 1000 nM was found for CC(C)c1cc(F)c(F)c(C(C)C)c1CC(=O)N=S(N)(=O)c1nc(C(C)(C)O)cs1 (stereo not drawn) [Example 124, N-(amino(4-(2-hydroxypropan-2-yl)thiazol-2-yl)(oxo)-λ^6-sulfaneylidene)-2-(3,4-difluoro-2,6-diisopropylphenyl)acetamide] in this work.
An IC50 of 200 to 1000 nM was found for CC(C)c1ccc(F)c(C(C)C)c1CC(=O)N=S(N)(=O)c1ccc(C(C)(C)O)s1 (stereo not drawn) [Example 125, N-(amino(5-(2-hydroxypropan-2-yl)thiophen-2-yl)(oxo)-λ^6-sulfaneylidene)-2-(3-fluoro-2,6-diisopropylphenyl)acetamide] in this work.
An IC50 of 200 to 1000 nM was found for COc1ccc2cc(-c3cc(C(C)C)c(CC(=O)N=S(N)(=O)c4ncc(C(C)(C)O)s4)c(C(C)C)c3)ccc2c1 (stereo not drawn) [Example 126, N-(amino(5-(2-hydroxypropan-2-yl)thiazol-2-yl)(oxo)-λ^6-sulfaneylidene)-2-(2,6-diisopropyl-4-(6-methoxynaphthalen-2-yl)phenyl)acetamide] in this work.
An IC50 of 5000 to 30000 nM was found for CC(C)c1cc(F)cc(C(C)C)c1CC(=O)N=S(N)(=O)c1ncc(C(C)(C)C(=O)O)s1 (stereo not drawn) [Example 127, 2-(2-(N′-(2-(4-fluoro-2,6-diisopropylphenyl)acetyl)sulfamidimidoyl)thiazol-5-yl)-2-methylpropanoic acid] in this work.
An IC50 of 200 to 1000 nM was found for CC(C)c1c(F)c(C#N)cc(C2CC2)c1CC(=O)N=S(N)(=O)c1ccc(CN(C)C)cc1F (stereo not drawn) [Example 128, N-(amino(4-((dimethylamino)methyl)-2-fluorophenyl)(oxo)-λ^6-sulfaneylidene)-2-(4-cyano-6-cyclopropyl-3-fluoro-2-isopropylphenyl)acetamide] in this work.
An IC50 of 40 to 200 nM was found for Cc1sc(S(N)(=O)=NC(=O)Cc2c(C(C)C)ccc(F)c2C(C)C)cc1C(C)(C)O (stereo not drawn) [Example 129, N-(amino(4-(2-hydroxypropan-2-yl)-5-methylthiophen-2-yl)(oxo)-λ^6-sulfaneylidene)-2-(3-fluoro-2,6-diisopropylphenyl)acetamide] in this work.
An IC50 of 1000 to 5000 nM was found for CC(C)c1ccc(F)c(C(C)C)c1CC(=O)N=S(N)(=O)c1ncc(C(C)(C)O)s1 (stereo not drawn) [Example 130, N-(amino(5-(2-hydroxypropan-2-yl)thiazol-2-yl)(oxo)-λ^6-sulfaneylidene)-2-(3-fluoro-2,6-diisopropylphenyl)acetamide] in this work.
An IC50 of 1000 to 5000 nM was found for CC(C)c1cc2c(c(C(C)C)c1CC(=O)N=S(N)(=O)c1cnc(C(C)(C)O)s1)COC2 (stereo not drawn) [Example 132, N-(amino(2-(2-hydroxypropan-2-yl)thiazol-5-yl)(oxo)-λ^6-sulfaneylidene)-2-(4,6-diisopropyl-1,3-dihydroisobenzofuran-5-yl)acetamide] in this work.
An IC50 of 200 to 1000 nM was found for CC(C)c1cc(C#N)c(F)c(C(C)C)c1CC(=O)N=S(N)(=O)c1nc(C(C)(C)O)cs1 (stereo not drawn) [Example 133, N-(amino(4-(2-hydroxypropan-2-yl)thiazol-2-yl)(oxo)-λ^6-sulfaneylidene)-2-(4-cyano-3-fluoro-2,6-diisopropylphenyl)acetamide] in this work.
An IC50 of 1000 to 5000 nM was found for CC(C)c1cc2c(c(C(C)C)c1CC(=O)N=S(N)(=O)c1ccc(CN(C)C)cc1)COC2 (stereo not drawn) [Example 134] in this work.
An IC50 of 1000 to 5000 nM was found for CC(C)c1ccc2c(c1CC(=O)N=S(N)(=O)c1cnc(C(C)(C)O)s1)CCC2 (stereo not drawn) [Example 135, N-(amino(2-(2-hydroxypropan-2-yl)thiazol-5-yl)(oxo)-λ^6-sulfaneylidene)-2-(5-isopropyl-2,3-dihydro-1H-inden-4-yl)acetamide] in this work.
An IC50 of 200 to 1000 nM was found for CC(C)c1cc(-c2ccc3ccccc3c2)cc(C(C)C)c1CC(=O)N=S(N)(=O)c1ccc(CN(C)C)cc1 (stereo not drawn) [Example 136, N-(amino(4-((dimethylamino)methyl)phenyl)(oxo)-λ^6-sulfaneylidene)-2-(2,6-diisopropyl-4-(naphthalen-2-yl)phenyl)acetamide] in this work.
An IC50 of 200 to 1000 nM was found for CC(C)c1cc(-c2ccc3c(c2)CCOC3)cc(C(C)C)c1CC(=O)N=S(N)(=O)c1sc(C(C)(C)O)nc1CO (stereo not drawn) [Example 137, N-(amino(4-(hydroxymethyl)-2-(2-hydroxypropan-2-yl)thiazol-5-yl)(oxo)-λ^6-sulfaneylidene)-2-(4-(isochroman-6-yl)-2,6-diisopropylphenyl)acetamide] in this work.
